ChEMBL document CHEMBL3272271, “Folate antagonists. 13. 2,4-Diamino-6-](alpha,alpha,alpha-trifluoro-m-tolyl)thio]quinazoline and related 2,4-diamino-6-[(phenyl- and naphthyl)thio]quinazolines, a unique class of antimetabolites with extraordinary antimalarial and antibacterial effects” (J Med Chem, 1978)
≈ marks a conversion by molar mass, not a printed value. Calls of active or inactive are those of the source. The calls are words filed in the database; no cut-off is given here.

What was measured:
[1] = system: Gallus gallus; experiment: Toxicity in sporozoite-induced Plasmodium gallinaceum infected white leghorn chicken assessed as mortality at 480 mg/kg, sc administered 72 hrs after infection measured up to 6 days; format: organism-based; parameters: dose 480 mg/kg, route subcutaneous; details: in vivo
[2] = system: Plasmodium gallinaceum; experiment: Antimalarial activity against sporozoite-induced Plasmodium gallinaceum infected in white leghorn chicken assessed as increase in mean survival days of host at 240 mg/kg, sc administered 72 hrs after infection relative to control; format: functional; details: route subcutaneous
[3] = system: Plasmodium gallinaceum; experiment: Antimalarial activity against sporozoite-induced Plasmodium gallinaceum infected in white leghorn chicken assessed as increase in mean survival days of host at 120 mg/kg, sc administered 72 hrs after infection relative to control; format: functional; details: route subcutaneous
[4] = system: Plasmodium gallinaceum; experiment: Antimalarial activity against sporozoite-induced Plasmodium gallinaceum infected in white leghorn chicken assessed as increase in mean survival days of host at 60 mg/kg, sc administered 72 hrs after infection relative to control; format: functional; details: route subcutaneous
[5] = system: Plasmodium gallinaceum; experiment: Antimalarial activity against sporozoite-induced Plasmodium gallinaceum infected in white leghorn chicken assessed as increase in mean survival days of host at 30 mg/kg, sc administered 72 hrs after infection relative to control; format: functional; details: route subcutaneous
[6] = system: Plasmodium gallinaceum; experiment: Antimalarial activity against sporozoite-induced Plasmodium gallinaceum infected in white leghorn chicken assessed as increase in mean survival days of host at 15 mg/kg, sc administered 72 hrs after infection relative to control; format: functional; details: route subcutaneous
[7] = system: Plasmodium gallinaceum; experiment: Antimalarial activity against sporozoite-induced Plasmodium gallinaceum infected in white leghorn chicken assessed as increase in mean survival days of host at 7.5 mg/kg, sc administered 72 hrs after infection relative to control; format: functional; details: route subcutaneous
[8] = system: Plasmodium berghei; experiment: Antimalarial activity against Plasmodium berghei infected in mouse assessed as increase in mean survival days of host at 160 mg/kg, sc administered 72 hrs after infection relative to control; format: functional; details: route subcutaneous
[9] = system: Plasmodium berghei; experiment: Antimalarial activity against Plasmodium berghei infected in mouse assessed as increase in mean survival days of host at 80 mg/kg, sc administered 72 hrs after infection relative to control; format: functional; details: route subcutaneous
[10] = system: Plasmodium berghei; experiment: Antimalarial activity against Plasmodium berghei infected in mouse assessed as increase in mean survival days of host at 40 mg/kg, sc administered 72 hrs after infection relative to control; format: functional; details: route subcutaneous
[11] = system: Plasmodium berghei; experiment: Antimalarial activity against Plasmodium berghei infected in mouse assessed as increase in mean survival days of host at 20 mg/kg, sc administered 72 hrs after infection relative to control; format: functional; details: route subcutaneous
[12] = system: Plasmodium berghei; experiment: Antimalarial activity against Plasmodium berghei infected in mouse assessed as increase in mean survival days of host at 10 mg/kg, sc administered 72 hrs after infection relative to control; format: functional; details: route subcutaneous
[13] = system: Plasmodium berghei; experiment: Antimalarial activity against trophozoite-induced Plasmodium berghei infected in mouse assessed as daily dose required to suppression of 90% parasite infection administered with diet for 6 days; format: functional
[14] = system: Plasmodium berghei; experiment: Ratio of quinine hydrochloride SD90 to compound SD90 for trophozoite-induced Plasmodium berghei infected in mouse assessed as daily dose required to suppression of 90% parasite infection administered with diet for 6 days; format: functional
[15] = system: Plasmodium gallinaceum; experiment: Antimalarial activity against trophozoite-induced Plasmodium gallinaceum infected in white leghorn chicken assessed as disease cure from parasite infection at 160 mg/kg, sc administered 72 hrs after infection; format: functional, organism-based; parameters: dose 160 mg/kg
[16] = system: Gallus gallus; experiment: Toxicity in trophozoite-induced Plasmodium gallinaceum infected white leghorn chicken assessed as mortality at 320 mg/kg, sc administered 72 hrs after infection measured after 48 hrs; format: organism-based; parameters: dose 320 mg/kg, route subcutaneous; details: in vivo
[17] = system: Enterococcus faecalis; experiment: Antibacterial activity against Streptococcus faecalis MGH-2 by gradient plate test; format: functional
[18] = system: Staphylococcus aureus; experiment: Antibacterial activity against Staphylococcus aureus UC-96 by gradient plate test; format: functional
[19] = system: Staphylococcus aureus; experiment: Antibacterial activity against drug-resistant Staphylococcus aureus S18713 by gradient plate test; format: functional
[20] = system: Pseudomonas aeruginosa; experiment: Antibacterial activity against Pseudomonas aeruginosa 28 by gradient plate test; format: functional
[21] = system: Escherichia coli; experiment: Antibacterial activity against Escherichia coli Vogel by gradient plate test; format: functional
[22] = system: Shigella sonnei; experiment: Antibacterial activity against Shigella sonnei C-10 by gradient plate test; format: functional
[23] = system: Plasmodium gallinaceum; experiment: Antimalarial activity against sporozoite-induced Plasmodium gallinaceum infected in white leghorn chicken assessed as disease cure from parasite infection at 320 mg/kg, sc administered 72 hrs after infection; format: functional, organism-based; parameters: dose 320 mg/kg
[24] = system: Gallus gallus; experiment: Toxicity in sporozoite-induced Plasmodium gallinaceum infected white leghorn chicken assessed as mortality at 320 mg/kg, sc administered 72 hrs after infection measured up to 6 days; format: organism-based; parameters: dose 320 mg/kg, route subcutaneous; details: in vivo
[25] = system: Plasmodium gallinaceum; experiment: Antimalarial activity against sporozoite-induced Plasmodium gallinaceum infected in white leghorn chicken assessed as disease cure from parasite infection at 160 mg/kg, sc administered 72 hrs after infection; format: functional, organism-based; parameters: dose 160 mg/kg
[26] = system: Gallus gallus; experiment: Toxicity in sporozoite-induced Plasmodium gallinaceum infected white leghorn chicken assessed as mortality at 160 mg/kg, sc administered 72 hrs after infection measured up to 6 days; format: organism-based; parameters: dose 160 mg/kg, route subcutaneous; details: in vivo
[27] = system: Plasmodium gallinaceum; experiment: Antimalarial activity against sporozoite-induced Plasmodium gallinaceum infected in white leghorn chicken assessed as increase in mean survival days of host at 80 mg/kg, sc administered 72 hrs after infection relative to control; format: functional; details: route subcutaneous
[28] = system: Plasmodium gallinaceum; experiment: Antimalarial activity against sporozoite-induced Plasmodium gallinaceum infected in white leghorn chicken assessed as disease cure from parasite infection at 80 mg/kg, sc administered 72 hrs after infection; format: functional, organism-based; parameters: dose 80 mg/kg
[29] = system: Gallus gallus; experiment: Toxicity in sporozoite-induced Plasmodium gallinaceum infected white leghorn chicken assessed as mortality at 80 mg/kg, sc administered 72 hrs after infection measured up to 6 days; format: organism-based; parameters: dose 80 mg/kg, route subcutaneous; details: in vivo
[30] = system: Plasmodium gallinaceum; experiment: Antimalarial activity against sporozoite-induced Plasmodium gallinaceum infected in white leghorn chicken assessed as increase in mean survival days of host at 40 mg/kg, sc administered 72 hrs after infection relative to control; format: functional; details: route subcutaneous
[31] = system: Plasmodium gallinaceum; experiment: Antimalarial activity against sporozoite-induced Plasmodium gallinaceum infected in white leghorn chicken assessed as disease cure from parasite infection at 40 mg/kg, sc administered 72 hrs after infection; format: functional, organism-based; parameters: dose 40 mg/kg
[32] = system: Plasmodium gallinaceum; experiment: Antimalarial activity against sporozoite-induced Plasmodium gallinaceum infected in white leghorn chicken assessed as increase in mean survival days of host at 20 mg/kg, sc administered 72 hrs after infection relative to control; format: functional; details: route subcutaneous
[33] = system: Plasmodium gallinaceum; experiment: Antimalarial activity against sporozoite-induced Plasmodium gallinaceum infected in white leghorn chicken assessed as disease cure from parasite infection at 20 mg/kg, sc administered 72 hrs after infection; format: functional, organism-based; parameters: dose 20 mg/kg
[34] = system: Plasmodium gallinaceum; experiment: Antimalarial activity against sporozoite-induced Plasmodium gallinaceum infected in white leghorn chicken assessed as increase in mean survival days of host at 10 mg/kg, sc administered 72 hrs after infection relative to control; format: functional; details: route subcutaneous
[35] = system: Plasmodium gallinaceum; experiment: Antimalarial activity against sporozoite-induced Plasmodium gallinaceum infected in white leghorn chicken assessed as increase in mean survival days of host at 5 mg/kg, sc administered 72 hrs after infection relative to control; format: functional; details: route subcutaneous
[36] = system: Plasmodium berghei; experiment: Antimalarial activity against Plasmodium berghei infected in mouse assessed as disease cure from parasite infection at 640 mg/kg, sc administered 72 hrs after infection; format: functional, organism-based; parameters: dose 640 mg/kg
[37] = system: Plasmodium berghei; experiment: Antimalarial activity against Plasmodium berghei infected in mouse assessed as disease cure from parasite infection at 320 mg/kg, sc administered 72 hrs after infection; format: functional, organism-based; parameters: dose 320 mg/kg
[38] = system: Plasmodium berghei; experiment: Antimalarial activity against Plasmodium berghei infected in mouse assessed as disease cure from parasite infection at 160 mg/kg, sc administered 72 hrs after infection; format: functional, organism-based; parameters: dose 160 mg/kg
[39] = system: Mus musculus; experiment: Toxicity in Plasmodium berghei infected mouse assessed as mortality at 640 mg/kg, sc administered 72 hrs after infection measured after 2 to 5 days; format: organism-based; parameters: dose 640 mg/kg, route subcutaneous; details: in vivo
[40] = system: Plasmodium gallinaceum; experiment: Antimalarial activity against trophozoite-induced Plasmodium gallinaceum infected in white leghorn chicken assessed as increase in mean survival days of host at 160 mg/kg, sc administered 72 hrs after infection relative to control; format: functional; details: route subcutaneous
[41] = system: Plasmodium gallinaceum; experiment: Antimalarial activity against trophozoite-induced Plasmodium gallinaceum infected in white leghorn chicken assessed as increase in mean survival days of host at 80 mg/kg, sc administered 72 hrs after infection relative to control; format: functional; details: route subcutaneous
[42] = system: Plasmodium gallinaceum; experiment: Antimalarial activity against trophozoite-induced Plasmodium gallinaceum infected in white leghorn chicken assessed as increase in mean survival days of host at 40 mg/kg, sc administered 72 hrs after infection relative to control; format: functional; details: route subcutaneous
[43] = system: Plasmodium gallinaceum; experiment: Antimalarial activity against trophozoite-induced Plasmodium gallinaceum infected in white leghorn chicken assessed as increase in mean survival days of host at 20 mg/kg, sc administered 72 hrs after infection relative to control; format: functional; details: route subcutaneous
[44] = system: Plasmodium gallinaceum; experiment: Antimalarial activity against trophozoite-induced Plasmodium gallinaceum infected in white leghorn chicken assessed as increase in mean survival days of host at 10 mg/kg, sc administered 72 hrs after infection relative to control; format: functional; details: route subcutaneous
[45] = system: Plasmodium gallinaceum; experiment: Antimalarial activity against trophozoite-induced Plasmodium gallinaceum infected in white leghorn chicken assessed as increase in mean survival days of host at 5 mg/kg, sc administered 72 hrs after infection relative to control; format: functional; details: route subcutaneous
[46] = system: Plasmodium gallinaceum; experiment: Antimalarial activity against trophozoite-induced Plasmodium gallinaceum infected in white leghorn chicken assessed as increase in mean survival days of host at 2.5 mg/kg, sc administered 72 hrs after infection relative to control; format: functional; details: route subcutaneous
[47] = system: Plasmodium gallinaceum; experiment: Antimalarial activity against trophozoite-induced Plasmodium gallinaceum infected in white leghorn chicken assessed as increase in mean survival days of host at 1.25 mg/kg, sc administered 72 hrs after infection relative to control; format: functional; details: route subcutaneous
[48] = system: Plasmodium gallinaceum; experiment: Antimalarial activity against trophozoite-induced Plasmodium gallinaceum infected in white leghorn chicken assessed as increase in mean survival days of host at 0.63 mg/kg, sc administered 72 hrs after infection relative to control; format: functional; details: route subcutaneous

## CC(=O)O.Nc1nc(N)c2cc(NCc3ccc(Cl)c(Cl)c3)ccc2n1
[1]
  Activity: Toxic
[2]
  MST: 0 days
[3]
  MST: 0 days
[4]
  MST: 0 days
[5]
  MST: 0 days
[6]
  MST: 3.1 days
[7]
  MST: 2.3 days
[8]
  MST: 9.9 days
[9]
  MST: 12.9 days
[10]
  MST: 7.1 days
[11]
  MST: 2.5 days
[12]
  MST: 0.7 days
[13]
  SD90: 9.5 mg/kg/day
[14]
  Ratio: 7.9

## Cc1cccc(Sc2ccc3nc(N)nc(N)c3c2)c1
[15]
  Activity: Active
[16]
  Activity: Toxic
[17]
  MIC: < 0.25 µg/mL
[18]
  MIC: < 0.25 µg/mL
[19]
  MIC: < 0.25 µg/mL
[20]
  MIC: > 25 µg/mL
[21]
  MIC: < 0.25 µg/mL
[22]
  MIC: 1.5 µg/mL (≈ 5.31 µM)
[23]
  Activity: Active
[24]
  Activity: Toxic
[25]
  Activity: Active
[26]
  Activity: Toxic
[27]
  MST: 4.7 days
[28]
  Activity: Active
[29]
  Activity: Toxic
[30]
  MST: 1.7 days
[31]
  Activity: Active
[32]
  MST: 3.8 days
[33]
  Activity: Active
[34]
  MST: 1.8 days
[35]
  MST: 0.3 days
[8]
  MST: 12.7 days
[9]
  MST: 7.7 days
[10]
  MST: 6.7 days
[11]
  MST: 2.3 days
[12]
  MST: 2.4 days
[36]
  Activity: Active
[37]
  Activity: Active
[38]
  Activity: Active
[39]
  Activity: Toxic
[13]
  SD90: 6.2 mg/kg/day
[14]
  Ratio: 12
[40]
  MST: 10.7 days
[41]
  MST: 7.8 days
[42]
  MST: 6.4 days
[43]
  MST: 6.2 days
[44]
  MST: 6 days
[45]
  MST: 0 days
[46]
  MST: 0 days
[47]
  MST: 0 days
[48]
  MST: 0 days
